Test results published in patent US7071218B2, “N-substituted heterocycles for the treatment of hypercholesteremia, dyslipidemia and other metabolic disorders; cancer, and other diseases” (Incyte San Diego Incorporated, priority 2001, dated 2006).

System: 3T3-L1 cells
Assay: 3T3-L1 adipocyte differentiation (lipid content), alone or with rosiglitazone (BRL49653)
Format: cell-based, mouse
Settings: 7 days of treatment
Source text: The mouse preadipocyte cell line 3T3-L1 has been extensively used to study adipocyte differentiation. Upon stimulation with differentiating agents, preadipocytes typically undergo one cell cycle expansion and then they are growth arrested and dramatically change their shape to become more rounded cells, loaded with lipids, in a fashion closely reflecting adipogenesis in vivo. In this well-known process of differentiation, peroxisome proliferator activated receptor gamma (PPARγ) and retinoid X receptor (RXR) play a key role. PPARγ binds as an obligatory heterodimer with RXR to specific responsive sequences in the promoter region of target genes. In the particular case of PPARγ/RXR heterodimers, both receptors can be activated via their specific ligands. As a consequence of such activation, adipocyte-specific genes are turned on (C/EBP, aP2, LPL, adipsin, etc) and adipocyte differentiation results. Because lipid accumulation is the endpoint of adipocyte differentiation, the quantification of lipids which have accumulated in cells upon treatment with the compound(s) of interest, will indicate the ability of that compound to trigger adipocyte differentiation. More importantly, the potency of that compound can be estimated as well based on the total amount of lipids accumulated. The amount of lipid measured at the end of the assay for each tested compound is here compared to that of Compound 73 at 0.1 μM, which is considered 100% (see FIG. 11A).
In the particular case of measuring the potential antagonistic activity of some compounds, the putative antagonist is combined together with an agonist (such as the PPARγ agonist BRL49653). Thus, the amount of lipids accumulated in response to BRL49653 (considered as 100% in this case), is decreased by the compound with antagonistic activity (see FIG. 11B).
Materials and Methods: Mouse embryo fibroblast 3T3-L1 cell line, from American Type Culture Collection (ATCC), was used as a model of adipocyte differentiation.
Growing medium (GM): DME Dulbecco's modified Eagle's medium containing 4500 mg/L glucose; 4 mM L-glutamine; 10 U/ml Pen-G; 10 mcg/ml and 10% Calf Serum (CS).
Differentiation medium (DM): DME Dulbecco's modified Eagle's medium containing 4500 mg/L glucose; 4 mM L-glutamine; 10 U/ml Pen-G; 10 mcg/ml and 10% Fetal Calf Serum (FCS). Cells are always kept at 10% CO2.
Cells were seeded at 3,000 cells/well in 96 well-tissue culture plates in growing medium.
Two days after reaching confluence, cells were treated with the different compounds of interest in DM (Day 0). Drugs were replaced every 2–3 days in DM. Differentiation was assessed after 7 days of treatment, by measuring the lipid content in the cells, using the Triglyceride (INFINITY) reagent (Quantitative assay). • Controls: All cells, including control cells (vehicle), are treated with the same volume of dimethyl sulfoxide (DMSO) never exceeding 0.1% final solvent concentration. As a positive control for differentiation, cells were treated with 10 μg insulin per ml and 2.5 μM dexamethasone (Ins/Dex).

CN(C)c1cc2c(cc1-c1ccc3cc(/C=C4\SC(=S)N(CC(=O)O)C4=O)ccc3c1)C(C)(C)CCC2(C)C [Compound 7, {5-[6-(3-Dimethylamino-5,5,8,8-tetramethyl-5,6,7,8-tetrahydro-naphthalen-2-yl)-naphthalen-2-ylmethylene]-4-oxo-2-thioxo-thiazolidin-3-yl}-acetic acid]
lipid accumulation / differentiation of 3T3-L1 cells by the compound alone (1e-10M to 1e-5M): lacked the ability to differentiate 3T3-L1 cells by themselves
inhibition of adipocyte differentiation / lipid accumulation induced by rosiglitazone (BRL49653) (in combination with rosiglitazone): strongly inhibited
